# Laboratory results as given in a melting point compilation (Tetko et al.; mined from patent text by program, amines drawn as free bases though some values may be those of a salt).
row,Structure (SMILES),melting point
1,CC(C)c1cccc(C(C)C)c1NC(=O)C1CC(c2ccc(F)cc2)OC1=O (stereo not given),203 to 205 °C
2,CCOC(=O)C1=C(COCCCCO)NC(C)=C(C(=O)OC)C1c1cccc(Cl)c1Cl (stereo not given),103 to 104 °C
3,O[C@@H]1C=C[C@H](COC(c2ccccc2)(c2ccccc2)c2ccccc2)C1 (relative stereo),94 to 96 °C
4,Cc1cc(C)cc(C(=O)N(C)[C@H](Cc2ccccc2)C(=O)N[C@@H](Cc2c[nH]c3ccccc23)C(=O)O)c1,91 to 94 °C
5,COc1ccc(Nc2ccnc(NCCO)c2)cc1,164 to 165 °C
6,C/C(Cl)=C/CC(C(=O)O)C(=O)O,95 to 97 °C
7,FC(F)(F)c1ccc(C2CNCc3[nH]c4ccccc4c32)cc1 (stereo not given),172 to 174 °C
8,CCOC(=O)C1=C(c2ccc(-n3nc(C)nc3C)cc2)NC(C)=C(C(=O)Nc2ccccn2)C1c1ccccc1Cl (stereo not given),130 °C
9,N#Cc1ccc2c(c1)nc(N)n2CCC(=O)O,> 320 °C
10,O=C(Nc1ccccc1)c1ccc(Nc2ccccc2)nc1,264 to 266 °C
11,Nc1cc2c(cc1[N+](=O)[O-])OCC2,152 °C
12,CCCCCCCCCCOc1ccc([N+](=O)[O-])cc1OCCCCCCCCCC,60 to 61 °C
13,COc1ccc(-n2cnnc2C(C)O)cc1 (stereo not given),170 °C
14,CCCC1=C(C#N)C(c2ccccc2Cl)c2c[nH]nc2N1 (stereo not given),248 °C
15,COc1cc(N2CCN(C[C@@H](O)CO)CC2)ccc1Nc1ncc2ccc(-c3cc(Cl)ccc3OC)n2n1,101 to 104 °C
16,COc1cc(C(C)=O)cc(Br)c1Oc1nc(C)nc(N2CCOCC2)n1,159 to 162 °C
17,O=[N+]([O-])c1cccc(Nc2nccc(Sc3cccc(Br)c3)n2)c1,208 to 209 °C
18,CC(=O)C(=CNc1cc(Cl)cc(C(=O)O)c1Cl)C(C)=O,244 to 246 °C
19,O=C(O)Cc1c(Sc2ccccc2)c2cc(F)ccc2n1Cc1ccc(Cl)cc1,168 °C
20,O=[PH](c1ccc2ccccc2c1)c1ccc2ccccc2c1,98.3 °C
21,Cc1cc2cn[nH]c2c(C(=O)NC(C)C)c1NC(=O)c1cc(OCC(F)(F)F)nn1-c1ncccc1Cl,247 to 250 °C
22,COC(=O)COc1cccc(CCNC(=O)/C=C/c2cccnc2)c1,102 to 104 °C
23,OCCCOC(c1ccccc1)(c1ccccc1)c1ccccc1,117 to 118 °C
24,CN1CCN(c2nc3sc4c(NCCCN5CCOCC5)ncnc4c3c3c2COC(C)(C)C3)CC1,90.6 to 92.4 °C
25,C=CCc1c(C)ccc(N2C(=O)c3ccccc3C2=O)c1O,178 to 180 °C

# The remaining lines, values ahead:
row,melting point,Structure (SMILES)
1,73 to 75 °C,CCCC(=O)c1cnc2ccc(OC)cc2c1Cl
2,181 to 185 °C,C=CCOc1ncc(F)c(N(N)C(=O)c2cccc(C)c2)n1
3,116 to 119 °C,O=C(O)CCc1ccc2ccccc2c1Br
4,118 °C,Cc1nc(Cl)c(SC(F)F)n1-c1c(Cl)cc(C(F)(F)F)cc1Cl
5,> 300 °C,Cc1nc(=O)c(O)c(-c2ccc(Cc3ccc(F)cc3)cn2)[nH]1
6,160 °C,CC[C@@H](C(=O)O)n1ccc2ccc(Cl)cc2c1=O
7,143 to 144 °C,N#CCCNC(=O)c1cccc(-c2cccc(Oc3cncc(Cl)c3)n2)c1
8,210 to 212 °C,CCCCc1nc2c(N)nc3ccc(OCCC4CCNCC4)cc3c2n1C
9,209 °C,Cn1cc(C(=O)NCc2ccc(Cl)cc2)c(=O)c2cc(COCC(=O)c3ccccc3)sc21
10,118 °C,COc1ccc2c(c1)C(N1CCN(C)CC1)c1ccccc1C=C2 (stereo not given)
11,137 to 139 °C,CSC1NC(=O)N(C)C(=O)N1C (stereo not given)
12,126 to 128 °C,Cc1c2n(c3ccccc13)CCC(Br)C2=O (stereo not given)
13,73 to 75 °C,COc1c(SCCCN2CCC(Cc3ccccc3)CC2)ccnc1CSc1nc2ccccc2[nH]1
14,210 to 212 °C,O=C(O)CCc1ccc(CCNC(=S)Cc2ccccc2)cc1
15,199 to 200 °C,CCc1cccc(-c2cnc3[nH]cc(C(=O)C(C)(C)C)c3n2)c1
